Measured values reported in US9226929B2, “Pharmaceutically active disubstituted triazine derivatives” (Bayer Intellectual Property GMBH, priority 2011, dated 2016).
pIC50, pKd: −log10 of the molar value.

What was measured:
[1] = test system: NF-kappaB reporter gene activation; experiment: NF-kappaB Reporter Assay; type: cell-based; details: Homo sapiens; HEK293 cells, pNFkBluc reporter, 20 ng/ml TNF alpha, 5 h; read-out: NF-kappaB activation (activity range), IC50
Experimental: 3.2 NF-kappaB Reporter Assay
Cells were maintained in RPMI cell culture medium+glutamine (PAN Biotech GmbH, Aidenbach, Germany) supplemented with 10% fetal calf serum (PAA Laboratories GmbH, Pasching, Austria) and grown at 37° C., 5% CO2. HEK293 cells grown to 50% confluence were transfected with the Amaxa® Cell Line Nucleofector® Kit V (Lonza, Basel, Switzerland, catalog #VCA-1003). Transfections were performed according to manufacturer's optimized protocol for transfection of HEK293 cells. In brief, 2×10^5 cells were transfected with 5 μg highly purified plasmid DNA. Cells were transfected with a NF-kappa B reporter plasmid (pNFkBluc), pTALluc for control, or pMAXGFP for transfection control. After transfection, cells were taken up in 500 μL RPMI1640 cell culture medium, incubated for 1 h at 37° C., and 4.5 ml DMEM without phenol red were added per transfection. Transfected cells were seeded in 96 well plates (Greiner Bio-One, Frickenhausen, Germany, catalog #655098) with 100 μL cell suspension per well and incubated for 48 h. To each well, 100 μL DMEM with 2× concentrated compound diluted from 10 mM DMSO stocks, or 100 μL DMEM with 0.4% DMSO for control wells, was added. The compounds of general formula (I) summarized in Table 6 were used in this assay. Cells were stimulated with 20 ng/ml TNF alpha, and plates were incubated for 5 h at 37° C./5% CO2. Cell culture supernatants were removed to leave 100 μl medium per well, followed by addition of 100 μl Bright Glo luciferase assay reagent (Promega, Madison, Wis., USA, catalog #E2620), and shaking for 5 minutes in the dark. Luminescence was measured with a Victor Photospectrometer (Perkin Elmer, Waltham, Mass., USA). IC50 values were calculated with the software Excel Fit (IDBS, Guildford, UK) from 2-fold dilution series comprising at least 10 concentrations in duplicates.

CDK2/CyclinA = biological target: T1, CDK2/CyclinA (Homo sapiens, UniProt P24941); experiment: LanthaScreen Eu Kinase Binding Assay, CDK2; details: tracer 236, read-out: CDK2 (activity range), Kd
T1 construct: GST; purchased Proqinase
Experimental: This protocol describes how the LanthaScreen Eu Kinase Binding Assay was performed to determine dissociation constants (Kd) of compounds of general formula (I) and CDK/Cyclin complexes. The principle behind this assay is based upon the binding and displacement of an Alexa Fluor 647-labeled tracer, which binds to the active site of kinases. Binding of the tracer to the kinase is detected using a Eu-labeled antibody. Simultaneous binding of both the tracer and antibody to the kinase gives rise to a FRET-signal. Binding of an inhibitor to the kinase competes for binding with the tracer, resulting in a loss of FRET.
The compounds of general formula (I) summarized in Table 1 were diluted from a 10 mM DMSO stock solution 1:10 in a total volume of 15 μL DMSO. This compound predilution was then serial diluted 1:3 over 8 steps in DMSO and briefly spun down. Each compound solution was now diluted 1:33.33 in kinase buffer (HEPES: 20 mM, pH: 8.0; MgCl2: 10 mM; DTT: 1 mM; Brij-35: 0,01%), mixed thoroughly and spun down. For every sample, 5 μL of the diluted compound were mixed with 5 μL tracer working solution (e.g. 60 nM tracer 236 in kinase buffer for CDK2/Cyclin A) and 5 μL CDK/Cyclin/Anti-GST-AB-working solution (e.g. 15 nM CDK2/Cyclin A, 1:250 dilution of Anti-GST-AB in kinase buffer) in a well of a small volume 384 well plate (Corning Incorporated, Corning, N.Y., USA; order no. 3673). The tracer concentration was adjusted to its dissociation constant (Kd) for the CDK/Cyclin, which was 30 nM for CDK2/Cyclin A, CDK7/Cyclin H and CDK9/Cyclin T1, 20 nM for CDK8/Cyclin C, and 35 nM for CDK9/Cyclin K. For negative controls, in each well 5 μL of DMSO working solution (3% DMSO diluted in kinase buffer) was mixed with 5 μL Anti-GST-AB working solution (e.g. 1:250 dilution of Anti-GST-AB in kinase buffer for CDK2/Cyclin A) and 5 μL Tracer working solution (e.g. 60 nM Tracer 236 in kinase buffer for CDK2/Cyclin A). For positive controls, in each well 5 μL of DMSO working solution (3% DMSO diluted in kinase buffer) was mixed with 5 μL CDK/Cyclin/Anti-GST-AB-working solution: (e.g. 15 nM CDK2/Cyclin A, 1:250 dilution of Anti-GST-AB in kinase buffer) and 5 μL Tracer working solution (e.g. 60 nM Tracer 236 in kinase buffer for CDK2/Cyclin A). Positive and negative controls were calculated from at least 8 different sample wells. The 384 well plates were mixed in a Teleshaker plate mixer (Beckman Coulter, Brea, Calif., USA) at 2000 rpm for 40 sec, and incubated for 1 h at room temperature before reading. The FRET signal was measured at 340 nm excitation, 665 nm and 615 nm emission (for the kinase tracer and LanthaScreen Eu-AB, respectively) with an Envision spectrophotometer (Perkin Elmer, Waltham, Mass., USA) with […]. Kd values were determined from the sigmoidal dose response curves with the software Quattro Workflow (Quattro GmbH, Munich, Germany).

Row | pIC50 [1] | pKd (CDK2/CyclinA) | SMILES
1 |  | > 7.00 | NS(=O)(=O)Cc1cccc(Nc2ncnc(N3CCc4ncsc4C3)n2)c1 [Compound B45, 3-[(4-(6,7-Dihydrothiazolo[5,4-c]pyridin-5(4H)-yl)-1,3,5-triazin-2-yl)amino]benzenemethanesulfonamide]
2 | 5.00 to 6.00 | > 7.00 | NS(=O)(=O)Cc1cccc(Nc2ncnc(N3CCCn4nccc43)n2)c1 [Compound B47, 3-[(4-(6,7-Dihydropyrazolo[1,5-a]pyrimidin-4(5H)-yl)-1,3,5-triazin-2-yl)amino]benzenemethanesulfonamide]
3 | 5.00 to 6.00 |  | NS(=O)(=O)Cc1cccc(Nc2ncnc(N3CCCC3c3ccccc3)n2)c1 (racemic) [Compound B33, rac-3-[(4-(2-Phenylpyrrolidin-1-yl)-1,3,5-triazin-2-yl)amino]-benzenemethanesulfonamide]
4 |  | 5.00 to 6.00 | NS(=O)(=O)Cc1cccc(Nc2ncnc(N3Cc4cn[nH]c4C3)n2)c1 [Compound B51, 3-[(4-(Pyrrolo[3,4-c]pyrazol-5(1H,4H,6H)-yl)-1,3,5-triazin-2-yl)amino]-benzenemethanesulfonamide]

Continued, compound first:

Row | SMILES | pIC50 [1] | pKd (CDK2/CyclinA)
5 | NS(=O)(=O)Cc1cccc(Nc2ncnc(N3CCCCC3)n2)c1 [Compound B1, 3-[(4-(Piperidin-1-yl)-1,3,5-triazin-2-yl)amino]benzenemethane sulfonamide] | < 5.00 | < 5.00
6 | NS(=O)(=O)Cc1cccc(Nc2ncnc(N3CCc4ncccc4C3)n2)c1 [Compound B38, 3-[(4-(7,8-Dihydro-1,6-naphthyridin-6(5H)-yl)-1,3,5-triazin-2-yl)amino]-benzenemethanesulfonamide] | 5.00 to 6.00 | 6.00 to 7.00
7 | COC[C@H]1CCCN1c1ncnc(Nc2cccc(CS(N)(=O)=O)c2)n1 [Compound B17, (R)-3-[(4-(2-(Methoxymethyl)pyrrolidin-1-yl)-1,3,5-triazin-2-yl)amino]benzenemethanesulfonamide] | < 5.00 | 5.00 to 6.00
8 | COC(=O)[C@H]1CCCN1c1ncnc(Nc2cccc(CS(N)(=O)=O)c2)n1 [Compound B21, (R)-Methyl 1-[4-((3-(Sulfamoylmethyl)phenyl)amino)-1,3,5-triazin-2-yl]pyrrolidine-2-carboxylate] | < 5.00 | 5.00 to 6.00
9 | NS(=O)(=O)Cc1cccc(Nc2ncnc(N3CCc4nc[nH]c4C3)n2)c1 [Compound B44, 3-[(4-(6,7-Dihydro-3H-imidazo[4,5-c]pyridin-5(4H)-yl)-1,3,5-triazin-2-yl)amino]benzenemethanesulfonamide] |  | > 7.00
